Assays:
[1] = tested on: NL09 or NL11; format: cell-based, influenza A virus
[2] = tested on: NL09 and NL11 strains; format: cell-based, influenza A virus

| SMILES | reduction of viral titers in hPCLSs [1] | viral reduction in hPCLSs [1] | viral reduction in A549 cells [2] |
| --- | --- | --- | --- |
| CNC(=O)c1cc(Oc2ccc(NC(=O)Nc3ccc(Cl)c(C(F)(F)F)c3)c(F)c2)ccn1 [RG, regorafenib] | more than 1000 fold | ~ 4 log10 | ~ 2 log10 |
| CN(C)C/C=C/C(=O)Nc1cc2c(Nc3ccc(F)c(Cl)c3)ncnc2cc1O[C@H]1CCOC1 [AF, afatinib] | more than 1000 fold | – | – |
| Cn1cc(-c2cc3c(N4CCN(c5ncc([C@@](C)(N)c6ccc(F)cc6)cn5)CC4)ncnn3c2)cn1 [AV, avapritinib] | ~ 10 fold | – | – |

Source: PMC9504178 (Viruses, 2022)
